According to US5567716A, “Trans and cis traumatic acid salts having cicatrizant activity associated to bacteriostatic, antiviral, antibiotic or antifungal activity” (priority 1992, dated 1996):

What was measured:
[1] = Physical chemical characteristics: solubility in water and organic solvents
E. Coli ATCC.35218 = experiment: Antibacterial activity, diffusion method in agar-germs (2.a); type: cell-based
Protocol: (§1) In a Tryprone Soy Agar diffusion medium ATCC (American Type Culture Collection) standard bacterial strains are inoculated, preparing a final solution of 10^6 cfu/g (colony forming unities) of the following strains:
(§2) Every plate contains 20 ml of a medium where 2 equidistant wells having a standard diameter are Formed and in each of these wells […] of the above described bacterial solution are inoculated. 2 plates are prepared for every couple of compounds to be tested at different concentrations, and For every strain, and each of these plates is compared with a white (sterile demineralized water inoculum). After the inoculum, the plates are placed in the refrigerator to favour diffusion and temporaneously blocking bacterial growth.
(§3) The compounds hexadecyltrimethylammonium traumatate and benzyldimethylhexadecylammonium traumatare respectively versus hexadecyl trimethylammonium bromide and benzyldimethylhexadecylammonium chloride are solubilized in demineralized water to Form solutions at the concentrations: 0.1; 0.5; and 1%.
(§4) The antibacterial effect is evaluated by measuring bacterial diffusion halo around the well vs white (halo absence).

PS Maltophila ATCC.13637 = experiment: as above; type: cell-based
Protocol: as §1, §2, §3, §4

[2] = tested on: Pseudomonas Aeruginosa ATCC.35422; experiment: as above; type: cell-based
Protocol: as §1, §2, §3, §4

[3] = tested on: Aspergillus Niger ATCC 16404; experiment: as above; type: cell-based; set-up: unit not given here
Protocol: as §1, §2, §3, §4

[4] = tested on: Candida Albicans ATCC.10231; experiment: as above; type: cell-based; set-up: unit not given here
Protocol: as §1, §2, §3, §4

PS Cepacia ATCC.25416 = experiment: as above; type: cell-based; set-up: unit not given here
Protocol: as §1, §2, §3, §4

[5] = tested on: Stafilococcus Aureus ATCC.65380; experiment: as above; type: cell-based; set-up: unit not given here
Protocol: as §1, §2, §3, §4

[6] = tested on: Stafilococcus Epidermidis ATCC.14990; experiment: as above; type: cell-based; set-up: unit not given here
Protocol: as §1, §2, §3, §4

[7] = tested on: Streptococcus Fecalis ATCC.291212; experiment: as above; type: cell-based; set-up: unit not given here
Protocol: as §1, §2, §3, §4

3T3 fibroblasts = experiment: Cellular proliferation of 3T3 fibroblasts, neutral red colorimetry (1.1a); type: cell-based, Mice
Protocol: Experiments on 3T3 fibroblasts
Mice 3T3 fibroblasts cultures sown at a 40.000/ml concentration on plates having 6 wells in a DMEM culture medium enriched with 10% calf serum are used. After 24 hours culture, the 90 prepared wells are divided in order to allow the analyses of the compounds of the invention, every compound to be tested being used respectively at a concentration of 0.1, 1 and 10 μg/ml by subsequent evaluations after 48 and 72 hours of incubation.
Hexadecyltrimethylammoniun (ETA) traumatare: solubilized in water and brought to the desired final concentrations of 0.1. 1 and 10 μg/ml by progressive dilutions;
Ethanolamine traumatate: solubilized in water and brought to the final concentrations of 0.1, 1 and 10 μg/ml by progressive dilutions;
Traumatic acid: neutralized with sodium hydroxyde and solubilized in water, then brought to the final concentrations of 0.1, 1 and 10 μg/ml by progressive dilutions with the culture medium.
The compounds are added to the cells after 24 hours culture. The cells number is measured by colorimetry with the neutral red intravital stain after 24, 48, 72 hours of incubation.

Structure (SMILES) | bacterial diffusion halo (E. Coli ATCC.35218; sol. 0.1%) | bacterial diffusion halo (E. Coli ATCC.35218; sol. 0.5%) | bacterial diffusion halo (E. Coli ATCC.35218; sol. 1%) | bacterial diffusion halo (PS Maltophila ATCC.13637; sol. 0.1%) | bacterial diffusion halo (PS Maltophila ATCC.13637; sol. 0.5%) | bacterial diffusion halo (PS Maltophila ATCC.13637; sol. 1%) | bacterial diffusion halo ([2]; sol. 0.1%) | bacterial diffusion halo ([2]; sol. 0.5%) | bacterial diffusion halo ([2]; sol. 1%) | bacterial diffusion halo ([3]; sol. 0.1%) | bacterial diffusion halo ([3]; sol. 0.5%) | bacterial diffusion halo ([3]; sol. 1%) | bacterial diffusion halo ([4]; sol. 0.1%) | bacterial diffusion halo ([4]; sol. 0.5%) | bacterial diffusion halo ([4]; sol. 1%) | bacterial diffusion halo (PS Cepacia ATCC.25416; sol. 0.1%) | bacterial diffusion halo (PS Cepacia ATCC.25416; sol. 0.5%) | bacterial diffusion halo (PS Cepacia ATCC.25416; sol. 1%) | bacterial diffusion halo ([5]; sol. 0.1%) | bacterial diffusion halo ([5]; sol. 0.5%) | further results
Clc1ccc(COC(C[n+]2cc[nH]c2)c2ccc(Cl)cc2Cl)c(Cl)c1.Clc1ccc(COC(C[n+]2cc[nH]c2)c2ccc(Cl)cc2Cl)c(Cl)c1.O=C([O-])/C=C/CCCCCCCCC(=O)[O-] (racemic) [miconazole trans-traumatate] | – | – | – | – | – | – | – | – | – | – | – | – | – | – | – | – | – | – | – | – | organic solvent solubility ([1]; in ethanol): > 10 mg/mL; solubility in water ([1]; water): > 10 mg/mL
CCCCCCCCCCCCCCCC[N+](C)(C)Cc1ccccc1.[Cl-] [BMA Chloride, benzyldimethylhexadecylammonium chloride, reference compound] | n.h. | n.h. | 13 | n.h. | n.h. | 15 | n.h. | 12 | 14 | 13 | 16 | 19 | 13 | 15 | 16 | 12 | 15 | 15 | 17 | 22 | bacterial diffusion halo ([5]; sol. 1%): 22; bacterial diffusion halo ([6]; sol. 0.1%): 15; bacterial diffusion halo ([6]; sol. 0.5%): 18; bacterial diffusion halo ([6]; sol. 1%): 19; bacterial diffusion halo ([7]; sol. 0.1%): 12; bacterial diffusion halo ([7]; sol. 0.5%): 14; bacterial diffusion halo ([7]; sol. 1%): 15
CCCCCCCCCCCCCCCC[N+](C)(C)C.[Br-] [ETA Bromide, hexadecyltrimethylammonium bromide, reference compound] | n.h. | 13 | 15 | n.h. | 15 | 21 | n.h. | n.h. | n.h. | 19 | 22 | 22 | 19 | 24 | 25 | 18 | 19 | 22 | 21 | 24 | bacterial diffusion halo ([5]; sol. 1%): 24; bacterial diffusion halo ([6]; sol. 0.1%): 20; bacterial diffusion halo ([6]; sol. 0.5%): 22; bacterial diffusion halo ([6]; sol. 1%): 22; bacterial diffusion halo ([7]; sol. 0.1%): 20; bacterial diffusion halo ([7]; sol. 0.5%): 22; bacterial diffusion halo ([7]; sol. 1%): 22
NCCO.O=C(O)/C=C/CCCCCCCCC(=O)O [ethanolamine traumatate, ethanolamine trans-traumatate] | – | – | – | – | – | – | – | – | – | – | – | – | – | – | – | – | – | – | – | – | effect on cells proliferation (3T3 fibroblasts; 0.1 μg/ml, in words): able to affect cells proliferation according to a not statistically significant trend; effect on cellular proliferation (3T3 fibroblasts; 1 μg/ml, in words, ETA salt > ethanolamine salt = traumatic acid): able to increase cellular proliferation; cells numeration (colorimetric, neutral red) (3T3 fibroblasts; 24 hours of incubation, 0.1 (head: μg/ml), control 0.579 ± 0.021): 0.562 ± 0.013; cells numeration (colorimetric, neutral red) (3T3 fibroblasts; 24 hours of incubation, 1.0 (head: μg/ml), control 0.579 ± 0.021): 0.609 ± 0.033; cells numeration (colorimetric, neutral red) (3T3 fibroblasts; 24 hours of incubation, 10.0 (head: μg/ml), control 0.579 ± 0.021): 0.553 ± 0.027; cells numeration (colorimetric, neutral red) (3T3 fibroblasts; 48 hours of incubation, 0.1 (head: μg/ml), control 1.334 ± 0.050): 1.415 ± 0.106; cells numeration (colorimetric, neutral red) (3T3 fibroblasts; 48 hours of incubation, 1.0 (head: μg/ml), control 1.334 ± 0.050): 1.435 ± 0.082; cells numeration (colorimetric, neutral red) (3T3 fibroblasts; 48 hours of incubation, 10.0 (head: μg/ml), control 1.334 ± 0.050, ** p < 0.01 significant reduction): 1.415 ± 0.132; cells numeration (colorimetric, neutral red) (3T3 fibroblasts; 72 hours of incubation, 0.1 (head: μg/ml), control 2.360 ± 0.125): 2.382 ± 0.039; cells numeration (colorimetric, neutral red) (3T3 fibroblasts; 72 hours of incubation, 1.0 (head: μg/ml), control 2.360 ± 0.125): 2.463 ± 0.100; cells numeration (colorimetric, neutral red) (3T3 fibroblasts; 72 hours of incubation, 10.0 (head: μg/ml), control 2.360 ± 0.125, ** p < 0.01 significant reduction): 2.408 ± 0.085; time necessary for the cells to reach the confluence (3T3 fibroblasts; side control experiment, ETA and ethanolamine salts > traumatic acid): reduce the time normally necessary for the cells to reach the confluence; solubility ([1]; ethanol, organic solvent or mixture): > 10000 µg/mL; solubility ([1]; water): > 10000 µg/mL
